PubChem BioAssay AID248 (DTP/NCI, 2004)
Values joined by “and” are separate entries in the source; they are usually repeats but may differ in a detail not shown here. Equal values may be shown once. Inconclusive results and toxic doses are left out. Cut-off read from the data, not from the text of the source: active = T/C of 150% or more; inactive = T/C below 125%.

Tested on: L1210 leukemia ip in BDF1 mice, survival T/C
Assay: NCI In Vivo Anticancer Drug Screen. Data for tumor model L1210 Leukemia (intraperitoneal) in B6D2F1 (BDF1) mice
Settings: endpoint: mean survival time, higher = longer survival
How it was run: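 Read-out is survival time, reported as the treated-group measurement over the vehicle-control measurement.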

[1] = dose: 100.0 mg/kg/injection, schedule: Q04DX003 (ip), vehicle: saline with Tween-80
[2] = dose: 200.0 mg/kg/injection, schedule: Q04DX003 (ip), vehicle: saline with Tween-80
[3] = dose: 400.0 mg/kg/injection, schedule: Q04DX003 (ip), vehicle: saline with Tween-80
[4] = dose: 100.0 mg/kg/injection, schedule: Q01DX009 (ip), vehicle: Klucel (hydroxypropylcellulose) (HPC)
[5] = dose: 100.0 mg/kg/injection, schedule: Q04DX003 (ip), vehicle: Klucel (hydroxypropylcellulose) (HPC)
[6] = dose: 200.0 mg/kg/injection, schedule: Q04DX003 (ip), vehicle: Klucel (hydroxypropylcellulose) (HPC)
[7] = dose: 400.0 mg/kg/injection, schedule: Q04DX003 (ip), vehicle: Klucel (hydroxypropylcellulose) (HPC)
[8] = dose: 100.0 mg/kg/injection, schedule: Q01DX009 (ip), vehicle: saline with Tween-80
[9] = dose: 100.0 mg/kg/injection, schedule: Q04DX002 (ip), vehicle: Klucel (hydroxypropylcellulose) (HPC)
[10] = dose: 200.0 mg/kg/injection, schedule: Q04DX002 (ip), vehicle: Klucel (hydroxypropylcellulose) (HPC)
[11] = dose: 400.0 mg/kg/injection, schedule: Q04DX002 (ip), vehicle: Klucel (hydroxypropylcellulose) (HPC)

Measured: T/C

COC1OC2COCOC2C(O)C1O (stereo not given)
inactive: dose: 25.0 mg/kg/injection, schedule: Q04DX002 (ip), vehicle: saline 93 % of control and 104 % of control | dose: 50.0 mg/kg/injection, schedule: Q04DX002 (ip), vehicle: saline 108 % of control | dose: 100.0 mg/kg/injection, schedule: Q04DX002 (ip), vehicle: saline 100 % of control [middle of 4 runs] | dose: 200.0 mg/kg/injection, schedule: Q04DX002 (ip), vehicle: saline 106 % of control and 100 % of control | dose: 400.0 mg/kg/injection, schedule: Q04DX002 (ip), vehicle: saline 103 % of control and 100 % of control

C=CCN(CC=C)/N=N/c1nc[nH]c1C(N)=O
inactive: dose: 37.5 mg/kg/injection, schedule: Q01DX009 (ip), vehicle: saline with Tween-80 104 % of control | dose: 75.0 mg/kg/injection, schedule: Q01DX009 (ip), vehicle: saline with Tween-80 100 % of control | dose: 150.0 mg/kg/injection, schedule: Q01DX009 (ip), vehicle: saline with Tween-80 98 % of control

COc1ccc(CC2c3cc(OC)c(OC)cc3CC[N+]2(C)C)cc1OC (stereo not given)
inactive: dose: 12.5 mg/kg/injection, schedule: Q01DX009 (ip), vehicle: saline sonified 103 % of control | dose: 25.0 mg/kg/injection, schedule: Q01DX009 (ip), vehicle: saline sonified 108 % of control | dose: 50.0 mg/kg/injection, schedule: Q01DX001 (ip), vehicle: Klucel (hydroxypropylcellulose) (HPC) 95 % of control | dose: 50.0 mg/kg/injection, schedule: Q01DX009 (ip), vehicle: saline sonified 102 % of control

CC1C(=O)C(=O)C(CCc2ccccc2)C1=O (stereo not given)
inactive: [1] 97 % of control | [2] 97 % of control | [3] 97 % of control

CC1c2c(-c3ccccc3)oc(-c3ccccc3)c2C(C)C(Br)C1Br (stereo not given)
inactive: [4] 121 % of control | [5] 103 % of control | dose: 200.0 mg/kg/injection, schedule: Q01DX009 (ip), vehicle: Klucel (hydroxypropylcellulose) (HPC) 104 % of control | [6] 90 % of control | dose: 400.0 mg/kg/injection, schedule: Q01DX009 (ip), vehicle: Klucel (hydroxypropylcellulose) (HPC) 109 % of control | [7] 92 % of control

CCN(CC)CCOC(=O)N1c2ccccc2Sc2ccccc21
inactive: dose: 25.0 mg/kg/injection, schedule: Q01DX009 (ip), vehicle: saline with Tween-80 100 % of control | dose: 50.0 mg/kg/injection, schedule: Q01DX009 (ip), vehicle: Klucel (hydroxypropylcellulose) (HPC) 102 % of control | dose: 50.0 mg/kg/injection, schedule: Q01DX009 (ip), vehicle: saline with Tween-80 103 % of control | [4] 102 % of control | [8] 103 % of control | [5] 98 % of control | [1] 93 % of control | [6] 93 % of control

CCOC(=O)C1=C(C)N(Cc2ccccc2)C(C)=C(C(=O)OCC)C1(C)C
inactive: [1] 101 % of control | [2] 98 % of control | [3] 106 % of control

Brc1ccc(N2N=C(c3ccccc3)N(c3ccc(Br)cc3)N=C2c2ccccc2)cc1
inactive: dose: 100.0 mg/kg/injection, schedule: Q01DX001 (ip), vehicle: other 90 % of control | dose: 100.0 mg/kg/injection, schedule: Q04DX003 (ip), vehicle: other 104 % of control | dose: 200.0 mg/kg/injection, schedule: Q01DX001 (ip), vehicle: other 93 % of control | dose: 200.0 mg/kg/injection, schedule: Q04DX003 (ip), vehicle: other 89 % of control | dose: 400.0 mg/kg/injection, schedule: Q01DX001 (ip), vehicle: other 95 % of control | dose: 400.0 mg/kg/injection, schedule: Q04DX003 (ip), vehicle: other 89 % of control

Cc1cccc(Sc2cccc3c2C(C)(O)c2c(Sc4cccc(C)c4)cccc2C3(C)O)c1 (stereo not given)
inactive: [1] 96 % of control | [2] 95 % of control | [3] 96 % of control

CCN1CCC(CNc2cc(C)nc(/N=C(\N)Nc3ccc(Cl)c(Cl)c3)n2)C1 (stereo not given)
inactive: dose: 12.5 mg/kg/injection, schedule: Q04DX003 (ip), vehicle: Klucel (hydroxypropylcellulose) (HPC) 98 % of control | dose: 25.0 mg/kg/injection, schedule: Q04DX003 (ip), vehicle: Klucel (hydroxypropylcellulose) (HPC) 102 % of control | dose: 50.0 mg/kg/injection, schedule: Q04DX003 (ip), vehicle: Klucel (hydroxypropylcellulose) (HPC) 107 % of control

O=C(NCCCCCCNC(=O)NCCN1CCOCC1)NCCN1CCOCC1
inactive: [9] 94 % of control | [10] 105 % of control | [11] 97 % of control

CC(C)(C)c1cc(C(C)(C)C)nc(C(C)(C)C)c1
inactive: dose: 100.0 mg/kg/injection, schedule: Q01DX001 (ip), vehicle: Klucel (hydroxypropylcellulose) (HPC) 98 % of control | dose: 200.0 mg/kg/injection, schedule: Q01DX001 (ip), vehicle: Klucel (hydroxypropylcellulose) (HPC) 98 % of control

O=C(c1cccnc1)c1cccnc1
inactive: [5] 91 % of control | [6] 100 % of control | [7] 97 % of control

CC1SCC(NC(=O)N(CCCl)N=O)CS1 (stereo not given)
active: dose: 8.0 mg/kg/injection, schedule: Q01DX001 (ip), vehicle: saline with Tween-80 150 % of control | dose: 12.0 mg/kg/injection, schedule: Q01DX001 (ip), vehicle: saline with Tween-80 264 % of control | dose: 18.0 mg/kg/injection, schedule: Q01DX001 (ip), vehicle: saline with Tween-80 389 % of control | dose: 26.0 mg/kg/injection, schedule: Q01DX001 (ip), vehicle: saline with Tween-80 368 % of control
inactive: dose: 60.0 mg/kg/injection, schedule: Q01DX001 (ip), vehicle: saline with Tween-80 104 % of control

CN(CC#N)/N=N/c1nc[nH]c1C(N)=O
inactive: dose: 50.0 mg/kg/injection, schedule: Q01DX Z (ip), vehicle: carboxymethylcellulose (CMC) 118 % of control | dose: 75.0 mg/kg/injection, schedule: Q01DX Z (ip), vehicle: carboxymethylcellulose (CMC) 107 % of control

O=C1OC(=O)C2C3CC(C(Br)C3Br)C12 (stereo not given)
inactive: [1] 102 % of control | [2] 98 % of control | [3] 101 % of control

COc1ccccc1[N+](C)(C)C
inactive: dose: 100.0 mg/kg/injection, schedule: Q01DX001 (ip), vehicle: saline 102 % of control

CCOC(=O)CCC(=O)c1cccc([N+](=O)[O-])c1
inactive: [8] 98 % of control | dose: 200.0 mg/kg/injection, schedule: Q01DX009 (ip), vehicle: saline with Tween-80 96 % of control | dose: 400.0 mg/kg/injection, schedule: Q01DX009 (ip), vehicle: saline with Tween-80 96 % of control

Nc1ncnc2c1c(-c1nc(=S)[nH][nH]1)cn2C1OC(CO)C(O)C1O (stereo not given)
inactive: dose: 100.0 mg/kg/injection, schedule: Q01DX005 (ip), vehicle: saline 106 % of control | dose: 200.0 mg/kg/injection, schedule: Q01DX005 (ip), vehicle: saline 108 % of control

CCCP(C)(=S)CCC
inactive: dose: 25.0 mg/kg/injection, schedule: Q04DX002 (ip), vehicle: Klucel (hydroxypropylcellulose) (HPC) 112 % of control | dose: 50.0 mg/kg/injection, schedule: Q04DX002 (ip), vehicle: Klucel (hydroxypropylcellulose) (HPC) 108 % of control | [9] 112 % of control

O=C1CN(CCN2CC(=O)N(Cc3ccccc3)C2=S)C(=S)N1Cc1ccccc1
inactive: [9] 88 % of control | [10] 88 % of control | [11] 92 % of control

CCCCCCCCCCCCC(=O)N1CCOCC1
inactive: [1] 122 % of control | [2] 107 % of control | [3] 104 % of control

Oc1ccc(Cl)cc1C=Nc1cnc2ccccc2c1
inactive: dose: 100.0 mg/kg/injection, schedule: Q01DX001 (ip), vehicle: carboxymethylcellulose (CMC) 88 % of control | dose: 400.0 mg/kg/injection, schedule: Q01DX001 (ip), vehicle: carboxymethylcellulose (CMC) 101 % of control

CCOC(=O)CN(C)C#N
inactive: dose: 100.0 mg/kg/injection, schedule: Q01DX009 (ip), vehicle: saline 101 % of control | dose: 100.0 mg/kg/injection, schedule: Q04DX003 (ip), vehicle: saline 92 % of control | dose: 200.0 mg/kg/injection, schedule: Q01DX009 (ip), vehicle: saline 101 % of control | dose: 200.0 mg/kg/injection, schedule: Q04DX003 (ip), vehicle: saline 92 % of control | dose: 400.0 mg/kg/injection, schedule: Q01DX009 (ip), vehicle: saline 92 % of control | dose: 400.0 mg/kg/injection, schedule: Q04DX003 (ip), vehicle: saline 91 % of control
